Legend:
[1] = system: TcCYP51; conditions: formerly reported; cited from earlier work
[2] = system: T. cruzi intracellular amastigotes in H9c2 cells; experiment: Rate-of-Kill (RoK) high-content imaging assay, amastigotes per cell (AM/CELL) and curve descriptors; type: cell-based, Trypanosoma cruzi; design: key to ME_24h / ME_48h / ME_72h: % reduction in parasite burden (cidal response); t50pct_MCC50 / t50pct_Cmax: unit not given here; conditions: for ME_24h: 24h; for ME_48h: 48h; for ME_72h: 72h; for t50%_Cmax / tlag_Cmax / t50pct_Cmax: at Cmax; for ME_24h (%): maximum effect at 24 h; for ME_24h (%) / ME_48h (%) / ME_72h (%): RoK assay; for ME_48h (%): maximum effect at 48 h; for ME_72h (%): maximum effect at 72 h; for ME 24h (maximum effect at 24 hours, intracellular amastigotes): maximum percentage of parasite burden reduction reached by any concentration
Summary of the method: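 H9c2 cardiomyocytes infected with T. cruzi trypomastigotes (MOI 8, 18 h), then compounds tested at 5 μM single shot or 11-point 1/3 dilution from 50 μM. DRAQ5-stained nuclei imaged over a time course. Amastigotes per cell normalised to infected cells at 4 h (0%) and non-infected cells (100%).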

[3] = system: T. cruzi Tulahuen trypomastigotes; experiment: T. cruzi trypomastigote assay (Cell Titer-Glo viability, ATP luminescence); type: cell-based, Trypanosoma cruzi; conditions: for Trypomastigotes pIC50 48 hours: 48 hours incubation; for Trypomastigotes pIC50 48 hours / Trypomastigotes pIC50 72 hours: pIC50 = -log10 IC50 in molar units; for Trypomastigotes pIC50 72 hours: 72 hours incubation; for 72 pIC50 (trypomastigotes, raw data of Fig 1D): 72 hours, plotted values, censored values given without sign; for 48 pIC50 / 72 pIC50: trypomastigote assay; for 48 pIC50: 48 h; for 72 pIC50: 72 h
Summary of the method: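 Tulahuen trypomastigotes from infected LLC-MK2 culture supernatants (days 5–8) plated at 5 × 10^4 per well in DMEM/2% FBS with compound at 5 μM single-shot final or in dose response. Viability by CellTiter-Glo ATP luminescence after 10 min at room temperature, normalised to no-cell (100%) and DMSO (0%) controls.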

Row | SMILES | CYP51 pIC50 [1] | ME_24h ([2]; figure 5) | ME_48h ([2]; figure 5) | ME_72h ([2]; figure 5) | MCC50 ([2]; RoK curve descriptor) [µM] | MCCE ([2]; RoK curve descriptor) [µM] | tlag_Cmax [2] [h] | t50pct_Cmax ([2]; figure 5) | tlag_Cmax ([2]; figure 5) | t50%_MCC50 ([2]; at MCC50) [h] | tlag_MCC50 ([2]; at MCC50) [h] | t50pct_MCC50 ([2]; at MCC50, figure 5) | tlag_MCC50 ([2]; at MCC50, figure 5) | MCCE ([2]; figure 5) | ME_24h (%) [2] [%] | ME_48h (%) [2] [%] | ME_72h (%) [2] [%] | ME 24h (maximum effect at 24 hours, intracellular amastigotes) [2] [%] | Trypomastigotes pIC50 48 hours [3] | Trypomastigotes pIC50 72 hours [3] | further results
1 | CCN(C)Cc1ccc(N2CCC(NS(=O)(=O)c3ccc4c(c3)CCO4)CC2)nc1 [TCMDC-143244] | < 4 | -27.3777 | 29.749 | 55.3707 | 5.6 | 5.6 | 24.0 | 72 | 24 | 72.0 | 24.0 | 72 | 48 | 5.556 | -27.4 | 29.8 | 55.4 | -2.6188 | < 4.3 | < 4.3 | AM/CELL NORM ([2]; Time 4, sheet figure 4 A): 16.0918; AM/CELL NORM ([2]; Time 24, figure 4 A): -52.1365; AM/CELL NORM ([2]; Time 48, figure 4 A): 10.0549; AM/CELL NORM ([2]; Time 72, figure 4 A): 24.5494; t50%_Cmax [2]: 72.0 h; MCC50 ([2]; figure 5, in µM): 27.7778; 72 pIC50 (trypomastigotes, raw data of Fig 1D) [3]: < 4.3; 48 pIC50 ([3]; figure 1A): < 4.3; 72 pIC50 ([3]; figure 1A): < 4.3; 72 pIC50 ([3]; figure 1B): < 4.3
2 | O=C(NCCc1cccnc1)c1csc(-c2ccccc2)n1 [TCMDC-143203] | 7.2 | -222.428 | -89.2348 | 54.0545 | 5.6 | 0.6 | 24.0 | 72 | 24 | 72.0 | 24.0 | 72 | 48 | 0.6173 | -222.4 | -89.2 | 54.1 | -177.566 | < 4.3 | < 4.3 | AM/CELL NORM ([2]; Time 4, sheet figure 4 A): 2.597; AM/CELL NORM ([2]; Time 24, sheet figure 4 A): -179.486; AM/CELL NORM ([2]; Time 48, sheet figure 4 A): -77.3027; AM/CELL NORM ([2]; Time 72, sheet figure 4 A): 80.8727; t50%_Cmax [2]: 72.0 h; MCC50 ([2]; figure 5, in µM): 27.7778; 72 pIC50 (trypomastigotes, raw data of Fig 1D) [3]: < 4.3; 48 pIC50 ([3]; figure 1A): < 4.3; 72 pIC50 ([3]; figure 1A): < 4.3; 72 pIC50 ([3]; figure 1B): < 4.3
3 | O=C(NCCc1ccccc1Cl)c1cccn1-c1cccnc1 [TCMDC-143253] | 7.1 | -106.211 | -219.247 | 24.5352 |  | 0.6 | 48.0 | 72 | 48 |  |  | 72 | 72 | 0.6173 | -106.2 | -219.3 | 24.5 | -106.211 | < 4.3 | < 4.3 | AM/CELL NORM ([2]; Time 4, sheet figure 4 A): -14.0913; AM/CELL NORM ([2]; Time 24, sheet figure 4 A): -106.211; AM/CELL NORM ([2]; Time 48, sheet figure 4 A): -401.6; AM/CELL NORM ([2]; Time 72, sheet figure 4 A): -120.948; MCC50 ([2]; figure 5): 50 µM; 72 pIC50 (trypomastigotes, raw data of Fig 1D) [3]: < 4.3; 48 pIC50 ([3]; figure 1A): < 4.3; 72 pIC50 ([3]; figure 1A): < 4.3; 72 pIC50 ([3]; figure 1B): < 4.3
4 | COc1ccc(C(=O)Nc2cc(C(F)(F)F)ccc2N2CCOCC2)c(OC)c1 [TCMDC-143310] | < 4 | 64.6908 | 80.1309 | 94.1302 | 1.9 | 0.6 | 4.0 | 24 | 4 | 72.0 | 4.0 | 72 | 4 | 0.6173 | 64.7 | 80.1 | 94.1 | 64.6908 | 5.8 | 6 | AM/CELL NORM ([2]; Time 4, sheet figure 4 A): -57.2428; AM/CELL NORM ([2]; Time 24, sheet figure 4 A): 64.6908; AM/CELL NORM ([2]; Time 48, sheet figure 4 A): 80.1309; AM/CELL NORM ([2]; Time 72, sheet figure 4 A): 94.1302; t50%_Cmax [2]: 24.0 h; MCC50 ([2]; figure 5, in µM): 1.852
5 | Cn1nccc1-c1cc(OC(CN)c2ccccc2)cnc1-c1ccco1.O=C(O)C(F)(F)F.O=C(O)C(F)(F)F (centres unmarked) [TCMDC-143221] | 7.2 | -243.084 | -97.9255 | 30.5438 |  | 1.9 | 24.0 | 72 | 24 |  |  | 72 | 72 | 1.852 | -243.1 | -97.9 | 30.5 | -243.084 | 4.4 | < 4.3 | AM/CELL NORM ([2]; Time 4, sheet figure 4 A): 21.0268; AM/CELL NORM ([2]; Time 24, sheet figure 4 A): -310.615; AM/CELL NORM ([2]; Time 48, sheet figure 4 A): -207.349; AM/CELL NORM ([2]; Time 72, sheet figure 4 A): 0.471; MCC50 ([2]; figure 5): 50 µM
6 | Cl.O=c1cc(NCCCNC2CCOc3c(I)cc(Cl)cc32)[nH]c2ccccc12 (centres unmarked) [TCMDC-139489] | 4.8 | 37.6706 | 64.7005 | 58.8587 | 5.6 | 0.2 | 4.0 | 48 | 4 | 72.0 | 4.0 | 72 | 4 | 0.2058 | 37.7 | 64.7 | 58.9 | 37.6706 | 5.8 | 6 | ME (maximum effect) in RoK assay (in words) [2]: high ME at 24 hours and 72 hours; tlag (in words) [2]: short tlag times; AM/CELL NORM ([2]; Time 4, figure 4 A): 5.191; AM/CELL NORM ([2]; Time 24, figure 4 A): 37.6706; AM/CELL NORM ([2]; Time 48, figure 4 A): 64.7005; AM/CELL NORM ([2]; Time 72, figure 4 A): 58.8587; t50%_Cmax [2]: 48.0 h; MCC50 ([2]; figure 5, in µM): 5.556
7 | O=C(NCC1CCCCC1)c1cc(=O)c2ccccc2o1 [TCMDC-123621] | < 4 | 36.8077 | 33.2383 | 64.4668 | 5.6 | 0.6 | 4.0 | 72 | 4 | 72.0 | 4.0 | 72 | 4 | 0.6173 | 36.8 | 33.2 | 64.5 | 36.8077 | 5 | 5 | AM/CELL NORM ([2]; Time 4, figure 4 A): -5.701; AM/CELL NORM ([2]; Time 24, figure 4 A): 30.3317; AM/CELL NORM ([2]; Time 48, figure 4 A): 33.2183; AM/CELL NORM ([2]; Time 72, figure 4 A): 64.4668; t50%_Cmax [2]: 72.0 h; MCC50 ([2]; figure 5, in µM): 5.556; 72 pIC50 (trypomastigotes, raw data of Fig 1D) [3]: 5; 48 pIC50 ([3]; figure 1A): 5; 72 pIC50 ([3]; figure 1A): 5; 72 pIC50 ([3]; figure 1B): 5
8 | COc1ccc(NS(=O)(=O)c2cc(NC(=O)Cc3ccc(C)cc3)ccc2N2CCOCC2)cc1 [TCMDC-143313] | < 4 | -207.804 | -855.253 | -1487.77 |  | 0.2 | 72.0 | 72 | 72 |  |  | 72 | 72 | 0.2058 | -207.8 | -855.3 | -1487.8 | 23.7828 | 5.9 | 6.3 | AM/CELL NORM ([2]; Time 4, figure 4 A): -12.1404; AM/CELL NORM ([2]; Time 24, figure 4 A): -266.8; AM/CELL NORM ([2]; Time 48, figure 4 A): -1156.6; AM/CELL NORM ([2]; Time 72, figure 4 A): -1899.09; MCC50 ([2]; figure 5): 50 µM
9 | COc1ccc(NS(=O)(=O)c2cc(-c3cc(C)[nH]n3)ccc2C)cc1OC [TCMDC-143194] | 4.4 | -114.917 | -675.674 | -796.23 | 16.7 | 1.2 | 41.3 | 72 | 41.3333 | 72.0 | 24.0 | 72 | 56 | 1.237 | -114.9 | -675.7 | -796.2 | 24.095 | 4.7 | 5.2 | AM/CELL NORM ([2]; Time 4, figure 4 A): 17.4808; AM/CELL NORM ([2]; Time 24, figure 4 A): 13.7763; AM/CELL NORM ([2]; Time 48, figure 4 A): 30.9676; AM/CELL NORM ([2]; Time 72, figure 4 A): 53.1796; MCC50 ([2]; figure 5, in µM): 38.8889

Reference: article PMC8318231, “Rate-of-Kill (RoK) assays to triage large compound sets for Chagas disease drug discovery: Application to GSK Chagas Box” (PLoS Neglected Tropical Diseases, 2021)
